Laboratory results as given in ChEMBL document CHEMBL1681743, “Novel second generation analogs of eribulin. Part III: Blood-brain barrier permeability and in vivo activity in a brain tumor model” (Bioorg Med Chem Lett, 2011).
Structures can show the parent of a compound that is named as a salt. The source made the active and inactive calls. No cut-off for these calls is given here.

What was measured:
[1] = Antiproliferative activity against human MES-SA cells; assay type: functional, cell-based
U-251 [2] = assay: Antiproliferative activity against human U251 cells; assay type: functional, cell-based
[3] = Antiproliferative activity against human doxorubicin-resistant MES-SA/Dx5-Rx1 cells; assay type: functional
SF-295 [4] = assay: Antiproliferative activity against human SF295 cells; assay type: functional, cell-based
[5] = Half life in BALB/c mouse at 5 mg/kg, iv; assay type: ADME, organism-based; set-up: dose 5 mg/kg, route intravenous; details: in vivo
Mus musculus = assay: AUC (0 to infinity) in BALB/c mouse at 5 mg/kg, iv; assay type: ADME, organism-based, Brain; set-up: time infinity, dose 5 mg/kg, route intravenous; details: in vivo
[6] = Brain penetration index, ratio of AUC (0 to infinity) in brain to plasma of BALB/c mouse at 5 mg/kg, iv; assay type: ADME, organism-based; set-up: dose 5 mg/kg, route intravenous
[7] = Tmax in BALB/c mouse at 5 mg/kg, iv; assay type: ADME, organism-based; set-up: dose 5 mg/kg, route intravenous; details: in vivo
[8] = Fraction unbound in BALB/c mouse brain at 5 mg/kg, iv; assay type: ADME, organism-based; set-up: dose 5 mg/kg, route intravenous
[9] = CSF penetration index, ratio of AUC (0 to infinity) in CSF to plasma of Sprague-Dawley rat at 4 mg/kg, iv; assay type: ADME, organism-based; set-up: dose 4 mg/kg, route intravenous
U-251 [10] = assay: Antitumor activity against human U251 cells infected in athymic mouse assessed as increase in mouse survival at 1.1 to 2.5 mg/kg relative to control; assay type: functional; details: dose mg/kg 1.1-2.5
SF-295 [11] = assay: Antitumor activity against human SF295 cells infected in athymic mouse assessed as increase in mouse survival at 0.36 to 0.80 mg/kg relative to control; assay type: functional, organism-based

SMILES | IC50 [1] | IC50 (U-251 [2]) | IC50 [3] | IC50 (SF-295 [4]) | half-life [5] | AUC (Mus musculus) | Ratio AUC [6] | Tmax [7] | fraction unbound [8] | Kp [9] | Activity (U-251 [10]) | Activity (SF-295 [11])
C=C1C[C@@H]2CC[C@@]34C[C@H]5O[C@H]6[C@@H](O3)[C@H]3O[C@H](CC[C@@H]3O[C@H]6[C@H]5O4)CC(=O)C[C@@H]3[C@@H](OC)[C@@H](C[C@@H](CN4CCC(C(F)(F)F)CC4)OC)O[C@H]3C[C@H]3O[C@@H](CC[C@@H]1O2)C[C@@H](C)C3=C | 0.14 nM | 0.33 nM | 0.83 nM |  |  |  |  |  |  |  |  | 
C#CCN(C)C[C@H](C[C@H]1O[C@H]2C[C@H]3O[C@@H](CC[C@@H]4O[C@@H](CC[C@@]56C[C@H]7O[C@H]8[C@@H](O5)[C@H]5O[C@H](CC[C@@H]5O[C@H]8[C@H]7O6)CC(=O)C[C@@H]2[C@H]1OC)CC4=C)C[C@@H](C)C3=C)OC | 0.18 nM | 0.18 nM | 0.95 nM | 0.41 nM |  |  |  |  |  |  |  | 
C=C1C[C@@H]2CC[C@@]34C[C@H]5O[C@H]6[C@@H](O3)[C@H]3O[C@H](CC[C@@H]3O[C@H]6[C@H]5O4)CC(=O)C[C@@H]3[C@@H](OC)[C@@H](CCN4CCOCC4)O[C@H]3C[C@H]3O[C@@H](CC[C@@H]1O2)C[C@@H](C)C3=C | 0.12 nM | 1.26 nM | 2.52 nM |  |  |  |  |  |  |  |  | 
C=C1C[C@@H]2CC[C@@]34C[C@H]5O[C@H]6[C@@H](O3)[C@H]3O[C@H](CC[C@@H]3O[C@H]6[C@H]5O4)CC(=O)C[C@@H]3[C@@H](OC)[C@@H](C[C@H](O)CN)O[C@H]3C[C@H]3O[C@@H](CC[C@@H]1O2)C[C@@H](C)C3=C [ERIBULIN MESYLATE] |  | 5.87 nM |  | 27.9 nM | 46 h | 435 ng·h/g | 0.55 mL/g | 30 min |  |  |  | 
C=C1C[C@@H]2CC[C@@]34C[C@H]5O[C@H]6[C@@H](O3)[C@H]3O[C@H](CC[C@@H]3O[C@H]6[C@H]5O4)CC(=O)C[C@@H]3[C@@H](OC)[C@@H](CCN4CCC(C(F)(F)F)CC4)O[C@H]3C[C@H]3O[C@@H](CC[C@@H]1O2)C[C@@H](C)C3=C | 0.11 nM | 0.28 nM | 0.75 nM |  |  |  |  |  |  |  |  | 
C=C1C[C@@H]2CC[C@@]34C[C@H]5O[C@H]6[C@@H](O3)[C@H]3O[C@H](CC[C@@H]3O[C@H]6[C@H]5O4)CC(=O)C[C@@H]3[C@@H](OC)[C@@H](CC(=O)CN4CCOCC4)O[C@H]3C[C@H]3O[C@@H](CC[C@@H]1O2)C[C@@H](C)C3=C | 0.25 nM | 0.88 nM | 3.12 nM |  |  |  |  |  |  |  |  | 
CC(=O)O[C@H]1C(=O)[C@@]2(C)[C@H]([C@H](OC(=O)c3ccccc3)[C@]3(O)C[C@H](OC(=O)[C@H](O)[C@@H](NC(=O)c4ccccc4)c4ccccc4)C(C)=C1C3(C)C)[C@]1(OC(C)=O)CO[C@@H]1C[C@@H]2O [PACLITAXEL] |  |  | > 1000 nM | 24.6 nM |  |  |  |  |  |  |  | 
C=C1C[C@@H]2CC[C@@]34C[C@H]5O[C@H]6[C@@H](O3)[C@H]3O[C@H](CC[C@@H]3O[C@H]6[C@H]5O4)CC(=O)C[C@@H]3[C@@H](OC)[C@@H](C[C@@H](CN4CCOCC4)OC)O[C@H]3C[C@H]3O[C@@H](CC[C@@H]1O2)C[C@@H](C)C3=C | 0.16 nM | 1.97 nM | 1.91 nM |  | 0.9 h | 1351 ng·h/g | 1.4 mL/g | 4.8 min | 0.113 | 2.2 |  | 
C=C1C[C@@H]2CC[C@@]34C[C@H]5O[C@H]6[C@@H](O3)[C@H]3O[C@H](CC[C@@H]3O[C@H]6[C@H]5O4)CC(=O)C[C@@H]3[C@@H](OC)[C@@H](C[C@@H](CN4CC(C)CC(C)C4)OC)O[C@H]3C[C@H]3O[C@@H](CC[C@@H]1O2)C[C@@H](C)C3=C (some centres not stated) | 0.13 nM | 2.55 nM | 2.41 nM | 0.1 nM | 5.3 h | 3108 ng·h/g | 1.7 mL/g | 4.8 min | 0.034 |  |  | 
C=C(C)CN(CC)CC[C@H]1O[C@H]2C[C@H]3O[C@@H](CC[C@@H]4O[C@@H](CC[C@@]56C[C@H]7O[C@H]8[C@@H](O5)[C@H]5O[C@H](CC[C@@H]5O[C@H]8[C@H]7O6)CC(=O)C[C@@H]2[C@H]1OC)CC4=C)C[C@@H](C)C3=C | 0.23 nM | 0.61 nM | 2.89 nM |  |  |  |  |  |  |  |  | 
C=C(C)CN(CC)C[C@H](C[C@H]1O[C@H]2C[C@H]3O[C@@H](CC[C@@H]4O[C@@H](CC[C@@]56C[C@H]7O[C@H]8[C@@H](O5)[C@H]5O[C@H](CC[C@@H]5O[C@H]8[C@H]7O6)CC(=O)C[C@@H]2[C@H]1OC)CC4=C)C[C@@H](C)C3=C)OC | 0.23 nM | 3.74 nM | 2.73 nM |  |  |  |  |  |  |  |  | 
C=C1C[C@@H]2CC[C@@]34C[C@H]5O[C@H]6[C@@H](O3)[C@H]3O[C@H](CC[C@@H]3O[C@H]6[C@H]5O4)CC(=O)C[C@@H]3[C@@H](OC)[C@@H](CCCN4CCOCC4)O[C@H]3C[C@H]3O[C@@H](CC[C@@H]1O2)C[C@@H](C)C3=C | 0.083 nM | 1.44 nM | 1.3 nM |  | 4.6 h | 10200 ng·h/g | 7.7 mL/g | 15 min | 0.101 |  |  | 
C=C(C)CN1CCO[C@@H](C[C@H]2O[C@H]3C[C@H]4O[C@@H](CC[C@@H]5O[C@@H](CC[C@@]67C[C@H]8O[C@H]9[C@@H](O6)[C@H]6O[C@H](CC[C@@H]6O[C@H]9[C@H]8O7)CC(=O)C[C@@H]3[C@H]2OC)CC5=C)C[C@@H](C)C4=C)C1 | 0.25 nM | 0.5 nM | 1.53 nM | 0.26 nM | 1.2 h | 1362 ng·h/g | 1.8 mL/g | 4.8 min | 0.024 |  | >175% | Active
C=C1C[C@@H]2CC[C@@]34C[C@H]5O[C@H]6[C@@H](O3)[C@H]3O[C@H](CC[C@@H]3O[C@H]6[C@H]5O4)CC(=O)C[C@@H]3[C@@H](OC)[C@@H](CCNCC(F)F)O[C@H]3C[C@H]3O[C@@H](CC[C@@H]1O2)C[C@@H](C)C3=C | 1.91 nM | 4.05 nM | 31.9 nM |  |  |  |  |  |  |  |  | 
C=C1C[C@@H]2CC[C@@]34C[C@H]5O[C@H]6[C@@H](O3)[C@H]3O[C@H](CC[C@@H]3O[C@H]6[C@H]5O4)CC(=O)C[C@@H]3[C@@H](OC)[C@@H](C[C@@H](COC)OC)O[C@H]3C[C@H]3O[C@@H](CC[C@@H]1O2)C[C@@H](C)C3=C | 0.24 nM | 0.74 nM |  |  |  |  |  |  |  |  |  | 
